Assay results reported in US8680111B2 (Pfizer Inc., priority 2012, dated 2014).
Where two headings read alike, the source gives them in different places.

Legend:
[1] = cc_pd bond
[2] = target: T1, WT EML4-ALK (NIH-3T3 EML4-ALK wt v1 cells) (Homo sapiens, UniProt Q9UM73); assay: Cellular phospho-ALK (Tyr1604) ELISA assay for WT EML4-ALK; type: cell-based; details: 1 hour
T1 construct: expressed in transfected cells; the other entry of the earlier key: EML4 (Q9HC35, Echinoderm microtubule-associated protein-like 4)
Method: (§1) Cellular Phospho-ALK (Tyr1604) ELISA Assay for EML4-ALK:
(§2) The cells were maintained at 37° C. in a 5% CO2 incubator in DMEM (Invitrogen, Carlsbad, Calif.) medium supplemented with 1% L-glutamine, 1% penicillin and streptomycin, 1 ug/ml puromycin and 10% new born calf serum (NCS) in T-75 flasks.
(§3) Cells were washed with PBS and re-suspended in DMEM medium supplemented with 0.5% NCS and 1% pen/strep and seeded into 96-well plates at density of 20,000 cells/well/100 μl and incubated in the incubator at 37° C. and 5% CO2. After 20 hours of incubation, 100 μl of assay media (DMEM) in presence of designated PF-compounds concentrations or controls (DMSO) were added into plates and incubated for 1 hour in the incubator. Media was then removed and lysis buffer, containing phosphatase inhibitors and phenylmethanesulfonyl fluoride (PMSF), was added to wells and shaken at 4° C. for 30 minutes to generate protein lysates.
(§4) A phospho-ALK (Tyr1604) rabbit antibody was coated onto the 96-well microplates. 50 μl of cell lysates were added to the antibody coated plate and incubated at room temperature for 2 hours. Following extensive washing with 0.1% Tween 20 in PBS to remove unbound materials, ALK mouse mAb was added to detect captured phospho-ALK (Tyr1604) and phospho-ALK fusion proteins. Anti-mouse IgG, HRP-linked antibody was then used to recognize the bound detection antibody. Finally, the chemiluminescent reagent was added and incubated for 10 minutes for signal development. The assay plates were read in the Envision plate reader in the luminescent mode. IC50 values were calculated by a concentration-response curve fitting using a four-parameter analytic method.

[3] = target: T2, L1196M EML4-ALK (NIH-3T3 EML4-ALK v1 L1196M cells) (Homo sapiens, UniProt Q9UM73, L1196M); assay: Cellular phospho-ALK (Tyr1604) ELISA assay for L1196M EML4-ALK; type: cell-based
T2 construct: expressed in transfected cells; the other entry of the earlier key: EML4 (Q9HC35, Echinoderm microtubule-associated protein-like 4)
Method: as §1, §2, §3, §4

[4] = target: T3, human recombinant L1196M ALK kinase domain (amino acids 1093-1411) (Homo sapiens, UniProt Q9UM73, L1196M); assay: L1196M mutant ALK enzyme assay (microfluidic mobility shift); type: biochemical
T3 construct: ALK kinase domain (amino acids 1093-1411); made in house

[5] = target: T4, human recombinant wild-type ALK kinase domain (amino acids 1093-1411) (Homo sapiens, UniProt Q9UM73); assay: Wild-type ALK enzyme assay (microfluidic mobility shift); type: biochemical; details: ATP 60 μM, competitive inhibition fit
T4 construct: ALK kinase domain (amino acids 1093-1411); made in house
Method: The reactions were incubated for 1 h at room temperature, stopped by the addition of 0.1 M EDTA, pH 8, and the extent of reactions (˜15-20% conversion with no inhibitor) was determined after electrophoretic separation of the fluorescently labeled peptide substrate and phosphorylated product on an LabChip EZ Reader II (Caliper Life Sciences, Hopkinton, Mass.).

[6] = cc_pd bond, 12-membered ring, Pd(OAc)2/cataCXium A/KOAc, t-AmOH, 120.0 °C
[7] = 12-membered ring
[8] = read-out: ELISA assay for WT EML4-ALK (IC50)
[9] = NIH-3T3 EML4-ALK v1 L1196M cells, 1 hour, phospho-ALK (Tyr1604), read-out: ELISA assay for L1196M EML4-ALK (IC50)
[10] = ATP 60 μM, 0.5 nM enzyme, competitive inhibition fit, read-out: L1196M ALK enzyme assay (Ki)
[11] = read-out: WT ALK enzyme assay (Ki)

Question: With `Cc1cnc2nc3c(n2c1)-c1cnc(N)c(n1)O[C@H](C)c1cc(F)ccc1C(=O)N(C)C3` as the molecule, how does the ring closure, yield of all isomers ([1]; from Cc1cnc2nc(CN(C)C(=O)c3ccc(F)cc3[C@@H](C)Oc3nc(Br)cnc3N)cn2c1, Pd(OAc)2/cataCXium A, KOAc, tert-amyl alcohol, 30.0 mM, 120.0 °C, 2.0 h) read?
Answer: Its ring closure, yield of all isomers is 50%.

Question: What does the source list for `CCc1noc2c1-c1cnc(N)c(c1)O[C@H](C)c1cc(F)ccc1C(=O)N(C)C2` [Example 81, (10R)-7-amino-3-ethyl-12-fluoro-10,16-dimethyl-16,17-dihydro-8,4-(metheno)[1,2]oxazolo[4,5-h][2,5,11]benzoxadiazacyclotetradecin-15(10H)-one]?
Answer: IC50 [2, 8]: 2.25 nM; ring closure, yield after HPLC (cc_pd bond, 12-membered ring, Pd(OAc)2/cataCXium A/KOAc/PivOH, DMA, 50.0 mM, […]): 6%; IC50 [3, 9]: 52 nM; Ki [4, 10]: 3.9 nM; Ki [5, 11]: < 1.88 nM

Question: Which results are given for `C[C@H]1Oc2nc(cnc2N)-c2c(noc2C#N)CN(C)C(=O)c2ccc(F)cc21` [Example 99, (10R)-7-amino-12-fluoro-10,16-dimethyl-15-oxo-10,15,16,17-tetrahydro-8,4-(azeno)[1,2]oxazolo[4,3-h][2,5,11]benzoxadiazacyclotetradecine-3-carbonitrile]?
Answer: IC50 [2, 8]: 52.4 nM; ring closure, conversion ([6]; 21.0 mM): 30%; ring closure, yield after HPLC (cc_pd bond, 12-membered ring, Pd(OAc)2/cataCXium A/KOAc, t-AmOH, 21.0 mM, 120.0 °C): 9%; IC50 [3, 9]: 531 nM; Ki [4, 10]: 11.7 nM; Ki [5, 11]: 3.2 nM

Question: Which ring closure, yield after HPLC (cc_pd bond, Pd(OAc)2/cataCXium A/KOAc, t-amyl alcohol, 30.0 mM, 120.0 °C) does the source give for `Cc1cnc2nc3cn2c1-c1cnc(N)c(n1)O[C@H](C)c1cc(F)ccc1C(=O)N(C)C3` here?
Answer: The ring closure, yield after HPLC was 7%.

Question: Which IC50 [2, 8] does the source give for `C[C@H]1Oc2cc(cnc2N)-c2c(n[nH]c2C#N)CN(C)C(=O)c2ccc(F)cc21` [Example 88, (10R)-7-amino-12-fluoro-10,16-dimethyl-15-oxo-10,15,16,17-tetrahydro-2H-8,4-(metheno)pyrazolo[4,3-h][2,5,11]benzoxadiazacyclotetradecine-3-carbonitrile] here?
Answer: The IC50 was 15.5 nM.

Question: And the ring closure, yield after HPLC (amide bond, 12-membered ring, HATU/DIEA, DMF, 8.3 mM, 0.0 °C)?
Answer: The ring closure, yield after HPLC was 12%.

Question: And the IC50 [3, 9]?
Answer: Its IC50 is 191 nM.

Question: What about the Ki [4, 10] of the same molecule?
Answer: The Ki was 0.39 nM.

Question: What about the Ki [5, 11] of the same molecule?
Answer: The Ki was 0.2 nM.

Question: What does the source list for `C[C@H]1Oc2cc(cnc2N)-c2c(noc2C#N)CN(C)C(=O)c2ccc(F)cc21` [Example 100, (10R)-7-amino-12-fluoro-10,16-dimethyl-15-oxo-10,15,16,17-tetrahydro-8,4-(metheno)[1,2]oxazolo[4,3-h][2,5,11]benzoxadiazacyclotetradecine-3-carbonitrile]?
Answer: IC50 [2, 8]: 146 nM; ring closure, conversion ([6]; 17.9 mM): 30%; IC50 [3, 9]: 1480 nM; ring closure, isolated yield ([7]; cc_pd bond, Pd(OAc)2/cataCXium A/KOAc, t-AmOH, 17.9 mM, 120.0 °C): 15%; Ki [4, 10]: 24.2 nM; Ki [5, 11]: 3.1 nM

Question: Which ring closure, yield of all isomers ([1]; from Cc1nn(C)c(CN(C)C(=O)c2ccc(F)cc2C(C)Oc2nc(Br)cnc2N)c1Br, Pd(OAc)2 / di(1-adamantyl)-n-butylphosphine, bis(pinacolato)diboron, CsF, MeOH, 42.4 mM, 100.0 °C, 8.5 h, 2 steps) does the source give for `Cc1nn(C)c2c1-c1cnc(N)c(n1)OC(C)c1cc(F)ccc1C(=O)N(C)C2` (stereo not shown) here?
Answer: Its ring closure, yield of all isomers is 6%.

Question: What does the source list for `C[C@H]1Oc2nc(cnc2N)-c2c(nn(C)c2C#N)CN(C)C(=O)c2ccccc21` [Example 70, (10R)-7-amino-2,10,16-trimethyl-15-oxo-10,15,16,17-tetrahydro-2H-8,4-(azeno)pyrazolo[4,3-h][2,5,11]benzoxadiazacyclotetradecine-3-carbonitrile]?
Answer: IC50 [2, 8]: 6.52 nM; ring closure, yield of all isomers ([1]; from C[C@@H](Oc1nc(Br)cnc1N)c1ccccc1C(=O)N(C)Cc1cc(C#N)n(C)n1, Pd(OAc)2/cataCXium A, KOAc, tert-amyl alcohol, 48.7 mM, 120.0 °C, 3.0 h): 32%; ring closure, yield after HPLC (from C[C@@H](Oc1nc(Br)cnc1N)c1ccccc1C(=O)N(C)Cc1cc(C#N)n(C)n1, cc_pd bond, 12-membered ring, Pd(OAc)2/cataCXium A/KOAc, t-amyl alcohol, 48.7 mM, 120.0 °C): 32%; IC50 [3, 9]: 78.5 nM; Ki [4, 10]: 0.96 nM; Ki [5, 11]: < 0.16 nM

Question: What does the source list for `C[C@H]1Oc2nc(cnc2N)-c2c(nn(C)c2C#N)CN(C)C(=O)c2c(F)cc(F)cc21` [Example 101, (10R)-7-amino-12,14-difluoro-2,10,16-trimethyl-15-oxo-10,15,16,17-tetrahydro-2H-8,4-(azeno)pyrazolo[4,3-h][2,5,11]benzoxadiazacyclotetradecine-3-carbonitrile]?
Answer: IC50 [2, 8]: 0.92 nM; ring closure, yield of all isomers ([1]; from C[C@@H](Oc1nc(Br)cnc1N)c1cc(F)cc(F)c1C(=O)N(C)Cc1cc(C#N)n(C)n1, Pd(OAc)2/cataCXium A/KOAc, tert-amyl alcohol, 50.0 mM, 120.0 °C, 2.0 h): 53%; IC50 [3, 9]: 8.77 nM; ring closure, isolated yield ([7]; cc_pd bond, Pd(OAc)2/cataCXium A/KOAc, t-amyl alcohol, 50.0 mM, 120.0 °C): 53%; Ki [4, 10]: 0.41 nM; Ki [5, 11]: 0.12 nM

Question: Which IC50 [2, 8] does the source give for `C[C@H]1Oc2nc(cnc2N)-c2c(C#N)noc2CN(C)C(=O)c2ccc(F)cc21` [Example 73, (10R)-7-amino-12-fluoro-10,16-dimethyl-15-oxo-10,15,16,17-tetrahydro-8,4-(azeno)[1,2]oxazolo[4,5-h][2,5,11]benzoxadiazacyclotetradecine-3-carbonitrile] here?
Answer: The IC50 was 12.8 nM.

Question: And the ring closure, yield after HPLC (cc_pd bond, 12-membered ring, Pd(OAc)2/cataCXium A/KOAc/PivOH, DMA, 49.9 mM, 120.0 °C)?
Answer: The ring closure, yield after HPLC was 21%.

Question: What about the IC50 [3, 9] of the same molecule?
Answer: The IC50 was 169 nM.

Question: What about the Ki [4, 10] of the same molecule?
Answer: The Ki was 2.4 nM.

Question: What about the Ki [5, 11] of the same molecule?
Answer: The Ki was 0.33 nM.

Question: Which IC50 [2, 8] does the source give for `C[C@H]1Oc2nc(cnc2N)-c2c(C(N)=O)noc2CN(C)C(=O)c2ccc(F)cc21` [Example 72, (10R)-7-amino-12-fluoro-10,16-dimethyl-15-oxo-10,15,16,17-tetrahydro-8,4-(azeno)[1,2]oxazolo[4,5-h][2,5,11]benzoxadiazacyclotetradecine-3-carboxamide] here?
Answer: Its IC50 is 347 nM.

Question: What about the ring closure, yield after HPLC (cc_pd bond, 12-membered ring, Pd(OAc)2/cataCXium A/KOAc/PivOH, DMA, […], 120.0 °C) of the same molecule?
Answer: The ring closure, yield after HPLC was 12%.

Question: What about the IC50 [3, 9] of the same molecule?
Answer: The IC50 was 4270 nM.

Question: What about the Ki [4, 10] of the same molecule?
Answer: Its Ki is 28 nM.

Question: What about the Ki [5, 11] of the same molecule?
Answer: The Ki was 5.1 nM.

Question: Which ring closure, yield after HPLC (amide bond, 12-membered ring, CMPI/DIEA, DMA, 10.0 mM, 0.0 °C) does the source give for `COc1nccc2c1-c1cnc(N)c(c1)OC(C)c1cc(F)ccc1C(=O)N(C)C2` (stereo not shown) [Example 45, 8-amino-13-fluoro-4-methoxy-11,17-dimethyl-17,18-dihydro-9,5-(metheno)pyrido[3,4-h][2,5,11]benzoxadiazacyclotetradecin-16(11H)-one] here?
Answer: The ring closure, yield after HPLC was 4%.

Question: What about the Ki [4, 10] of the same molecule?
Answer: The Ki was 500 nM.

Question: And the Ki [5, 11]?
Answer: The Ki was > 3000 nM.

Question: For `C[C@H]1Oc2nc(cnc2N)-c2c(nc3ccc(C#N)cn23)CN(C)C(=O)c2ccc(F)cc21`, which ring closure, yield after HPLC (cc_pd bond, 12-membered ring, cataCXium/t-AmOH/KOAc, DMAc, 11.9 mM, 110.0 °C) is on record?
Answer: Its ring closure, yield after HPLC is 12%.

Question: With `Cc1cnc2nc3c(n2c1)-c1cnc(N)c(c1)O[C@H](C)c1cc(F)ccc1C(=O)N(C)C3` [Example 57, (5R)-8-amino-3-fluoro-5,14,19-trimethyl-18,19-dihydro-7,11-(metheno)-pyrimido[2′,1′:2,3]imidazo[4,5-h][2,5,11]benzoxadiazacyclotetradecin-20(5H)-one] as the molecule, how does the IC50 ([2]; ELISA assay for WT EML4-ALK (IC50)) read?
Answer: Its IC50 is 6.79 nM.

Question: And the IC50 ([3]; ELISA assay for L1196M EML4-ALK (IC50))?
Answer: Its IC50 is 365 nM.

Question: And the ring closure, isolated yield ([7]; amide bond, HATU/DIEA, DMF, 25.1 mM)?
Answer: The ring closure, isolated yield was 52%.

Question: And the Ki ([4]; L1196M ALK enzyme assay (Ki))?
Answer: The Ki was 2 nM.

Question: And the Ki ([5]; WT ALK enzyme assay (Ki))?
Answer: The Ki was 0.14 nM.

Question: What does the source list for `C[C@H]1Oc2cc(cnc2N)-c2c(nn(C)c2C#N)CN(C)C(=O)c2ccccc21` [Example 71, (10R)-7-amino-2,10,16-trimethyl-15-oxo-10,15,16,17-tetrahydro-2H-8,4-(metheno)pyrazolo[4,3-h][2,5,11]benzoxadiazacyclotetradecine-3-carbonitrile]?
Answer: IC50 [2, 8]: 10.2 nM; ring closure, yield after HPLC (cc_pd bond, 12-membered ring, B2pin2/Pd(OAc)2/cataCXium A/CsF, MeOH/H2O, 12.7 mM, 100.0 °C): 13%; IC50 [3, 9]: 169 nM; Ki [4, 10]: 3.73 nM; Ki [5, 11]: < 0.249 nM
